# Measured values as given in the supplement of paper PMC10307832.
# Tests used:
# Assay in all cases: relative viability (nuclei count vs DMSO), 5 days (fraction); higher = more cells survive
# PAC-1 + Tozasertib = compound: C=CCc1cccc(/C=N/NC(=O)CN2CCN(Cc3ccccc3)CC2)c1O [PAC-1] + Cc1cc(Nc2cc(N3CCN(C)CC3)nc(Sc3ccc(NC(=O)C4CC4)cc3)n2)n[nH]1 [Tozasertib] (partner 0.1 µM)
# How it was run: (§1)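 Lung cancer cell lines, seeded in 1536-well plates, were treated the following day by pin tool with a single drug or with five library-drug doses (not always all listed) in √10 steps on top of a fixed anchor-drug dose. Cells were fixed and nuclei stained in one step after 5 days, and nuclei were counted. Relative viability is the nuclei count for treated wells divided by that for vehicle wells, reported as medians of duplicate plates.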
# BMX-IN-1 + Pemetrexed = compound: C=CC(=O)Nc1cc(-n2c(=O)ccc3cnc4ccc(-c5ccc(NS(C)(=O)=O)cc5)cc4c32)ccc1C [BMX-IN-1] + Nc1nc2[nH]cc(CCc3ccc(C(=O)N[C@@H](CCC(=O)O)C(=O)O)cc3)c2c(=O)[nH]1 [Pemetrexed] (partner 0.2 µM)
# How it was run: as §1
# PAC-1 + Dasatinib = compound: C=CCc1cccc(/C=N/NC(=O)CN2CCN(Cc3ccccc3)CC2)c1O [PAC-1] + Cc1nc(Nc2ncc(C(=O)Nc3c(C)cccc3Cl)s2)cc(N2CCN(CCO)CC2)n1 [Dasatinib] (partner 0.075 µM)
# How it was run: as §1
# BMX-IN-1 + Alpelisib = compound: C=CC(=O)Nc1cc(-n2c(=O)ccc3cnc4ccc(-c5ccc(NS(C)(=O)=O)cc5)cc4c32)ccc1C [BMX-IN-1] + Cc1nc(NC(=O)N2CCC[C@H]2C(N)=O)sc1-c1ccnc(C(C)(C)C(F)(F)F)c1 [Alpelisib] (partner 2 µM)
# How it was run: as §1
# BMX-IN-1 + Vorinostat = compound: C=CC(=O)Nc1cc(-n2c(=O)ccc3cnc4ccc(-c5ccc(NS(C)(=O)=O)cc5)cc4c32)ccc1C [BMX-IN-1] + O=C(CCCCCCC(=O)Nc1ccccc1)NO [Vorinostat] (partner 1 µM)
# How it was run: as §1
Cell Line,relative viability (PAC-1 + Tozasertib; first compound 0.02 µM),relative viability (PAC-1 + Tozasertib; first compound 0.06325 µM),relative viability (PAC-1 + Tozasertib; first compound 0.2 µM),relative viability (PAC-1 + Tozasertib; first compound 2 µM),relative viability (BMX-IN-1 + Pemetrexed; first compound 0.2 µM),relative viability (BMX-IN-1 + Pemetrexed; first compound 0.6325 µM),relative viability (BMX-IN-1 + Pemetrexed; first compound 2 µM),relative viability (PAC-1 + Dasatinib; first compound 0.02 µM),relative viability (PAC-1 + Dasatinib; first compound 0.06325 µM),relative viability (PAC-1 + Dasatinib; first compound 0.2 µM),relative viability (PAC-1 + Dasatinib; first compound 2 µM),relative viability (BMX-IN-1 + Alpelisib; first compound 0.2 µM),relative viability (BMX-IN-1 + Alpelisib; first compound 0.6325 µM),relative viability (BMX-IN-1 + Alpelisib; first compound 2 µM),relative viability (BMX-IN-1 + Vorinostat; first compound 0.2 µM),relative viability (BMX-IN-1 + Vorinostat; first compound 0.6325 µM),relative viability (BMX-IN-1 + Vorinostat; first compound 2 µM),relative viability (BMX-IN-1 + Pemetrexed; first compound 0.02 µM),relative viability (BMX-IN-1 + Vorinostat; first compound 0.02 µM),relative viability (BMX-IN-1 + Alpelisib; first compound 0.02 µM)
LOU-NH91,0.624,0.7,0.645,0.679,0.406,0.392,0.366,0.505,0.551,0.541,0.599,0.686,0.768,0.709,0.939,1.05,0.915,,,
NCI-H522,0.598,0.582,0.62,0.469,1.03,1.12,1.14,0.881,0.91,0.894,0.899,,,,0.786,0.832,0.968,1,0.979,
NCI-H727,0.679,0.585,0.589,0.602,,,,0.334,0.338,0.368,0.358,0.671,0.766,0.578,1.3,1.29,1.2,,1.11,0.499
NCI-H1299,,,,,,,,,,,,1.17,1.1,1.16,,,,,,1.14
NCI-H1563,,,,,0.769,0.724,0.675,0.446,0.431,0.44,0.495,0.902,0.904,0.893,,,,0.748,,0.997
NCI-H1623,0.42,0.43,0.427,0.482,,,,0.513,0.556,0.605,0.533,,,,,,,,,
NCI-H1648,0.6,0.606,0.464,0.488,0.721,0.875,0.765,,,,,,,,1,0.3,0.503,0.733,0.522,
NCI-H1650,0.361,0.393,0.522,0.375,0.354,0.541,0.325,0.363,0.305,0.263,0.361,,,,0.452,0.571,0.522,0.354,0.501,
NCI-H1703,,,,,,,,,,,,0.254,0.269,0.252,,,,,,0.359
NCI-H1792,,,,,1.28,0.885,1.17,0.996,0.77,0.763,0.755,0.473,0.579,0.684,,,,0.903,,0.585
NCI-H2342,0.521,0.564,0.525,0.61,0.802,0.97,0.796,0.302,0.311,0.295,0.302,,,,0.728,0.71,0.65,0.815,0.827,
SW 900,0.581,0.61,0.473,0.465,0.5,0.485,0.425,0.766,0.467,0.435,0.927,,,,0.548,0.678,0.47,0.529,0.659,
